Here are results for 1 molecule from ChEMBL document CHEMBL1759879, “A new quinoline derivative with cytotoxic activity from Streptomyces sp. neau50” (Bioorg Med Chem Lett, 2011).

Converted amounts (≈) assume the structure as drawn. The source made the active and inactive calls. The calls are words filed in the database; no cut-off is given here.

The subject of experiment [1] is Staphylococcus epidermidis. Briefly: Antimicrobial activity against Staphylococcus epidermidis at 10 uM by agar diffusion method. Format: functional, organism-based. On the technique in general: A growth-free zone around the sample is the usual read-out of agar diffusion tests.
In the next experiment the test system is Candida albicans. As to the kind of experiment: Antimicrobial activity against Candida albicans at 10 uM by agar diffusion method. Format: functional, organism-based.
The subject of the next experiment is A549. Briefly: Cytotoxicity against human A549 cells after 72 hrs colorimetric assay. Format: functional, cell-based. Conditions: A549, 72 h.

As a reminder, the IC50 is the point on the concentration scale where inhibition reaches its midpoint. Read a low IC50 as greater potency in that assay. Consider `COC(=O)c1cc(C)nc2c(CCC(C)(C)OC)cccc12`, for which the result (in experiment [1]; in the experiment with Candida albicans) was inactive. In the experiment on A549, the midpoint of inhibition, the IC50, lay at 29.3 µg/mL (≈ 97.2 µM).
